Patent US10081629B2, “Amide derivatives and pharmaceutically acceptable salts thereof, preparation method thereof and medicinal application thereof” (Shanghai Hengrui Pharmaceutical Co., Ltd., priority 2014, dated 2018)

Experiments:
[1] = molecular target: human mPGES1 (Homo sapiens (Human), UniProt O14684); experiment: Inhibition activity for human mPGES1 (enzyme assay, PGE2 HTRF); type: biochemical; conditions: membrane protein from HEK-293 F transfected with human mPGES1
Experimental: The method described here is used for determining the inhibition activity of the present compounds for human mPGES1.
• 1. PGE2 Assay kit (Cisbio, #62P2APEB) • 2. Prostaglandin H2 (Sigma, #P7867-1MG) • 3. FlexStation3 microplate reader. II. Experimental Procedure • 1. Obtaining the membrane proteins of mPGES1 enzyme
The cell density of HEK-293 F was grown to 6×10^5 per milliliter and was transferred with the plasmid containing human mPGES1 gene by transfection reagent PEI the next day. The cells were continuously cultured for 72 hours at 37° C. with shaking. After centrifuging at 1100 g for 5 minutes, the cells were harvested. After ultrasonication in an ice bath and centrifugation at 5000 g for 10 minutes, the supernatant was obtained. The supernatant was centrifuged at 100000 g for 1 hour to obtain a precipitate. The precipitate was resuspended with storage buffer containing 10% glycerinum, subpackaged and frozen rapidly under liquid nitrogen, and stored at −80° C. • 2. mPGES1 enzyme assay
mPGES1 was diluted with assay buffer and added into plate at 49 μL/well supplemented with 1 μL of compound (the final concentration of each compound at seven gradient concentrations was 10000 nM, 1000 nM, 100 nM, 10 nM, 1 nM, 0.1 nM and 0.01 nM). […] Then, each well was added with 53.8 μL of 6 mg/mL SnCl2 to quench the reaction. The sample was diluted with dilute buffer at 1:400. 10 μl of diluted sample, 5 μL PGE2-d2 and 5 μL anti-PGE2 Cryptate were added to a black 384-well plate, and incubated at 4° C. overnight. HTRF was determined using Flexstation, and the IC50 of the compounds was obtained by data processing software.
The inhibition activity of the present compounds on mPGES1 was tested by the assay described above.

[2] = Pharmacokinetics assay in rats; type: in vivo; conditions: both sexes, Sprague-Dawley, rat, plasma, po, SD rats, intragastric, 5 mg/kg; for Vd/F: read-out: Apparent Distribution Volume Vz/F; for AUC: read-out: Area Under Curve AUC; for CL/F: read-out: Clearance CLz/F; for half-life: read-out: Half-Life T½ (converted); for MRT: read-out: Mean Residence Time MRT; for Cmax: read-out: Plasma Conc. Cmax
Experimental: Rats were used as test animals. The drug concentration in plasma at different time points was determined by LC/MS/MS after administration of the compounds of Example 8, Example 11, Example 14, Example 17, Example 20, Example 27, Example 33, Example 35, Example 36, Example 37 and Example 48 to rats. The pharmacokinetic behavior of the present compounds was studied and evaluated in rats.
Forty four (44) healthy adult Sprague-Dawley (SD) rats, half male and half female, which were purchased from SINO-BRITSH SIPPR/BK LAB. ANIMAL LTD., CO, with Certificate No.: SCXK (Shanghai) 2008-0016, were divided into 11 groups, with 4 rats in each group.
The appropriate amount of test compounds was weighed, and mixed with 25 μL Tween 80 and Labrasol to prepare a 0.6 mg/mL suspension by ultrasonication.
After an overnight fast, 44 SD rats, half male and half female, were divided into 11 groups, and administered intragastrically at a dose of 5.0 mg/kg and an administration volume of 10 mL/kg.
Blood (0.1 mL) was sampled from the orbital sinus before administration and 0.5 h, 1.0 h, 2.0 h, 4.0 h, 6.0 h, 8.0 h, 11.0 h, and 24.0 h after administration. The samples were stored in EDTA anticoagulation tubes, and centrifuged for 5 minutes at 3,500 rpm to separate the blood plasma. The plasma samples were stored at −20° C. The rats were fed 2 hours after administration.
The plasma concentration of the test compounds in rat after intragastric administration was determined by LC-MS/MS. The linearity of the method is 5.00-2000 ng/mL and 1.00-2000 ng/ml, and the minimum of quantification is 5.00 ng/mL and 1.00 ng/mL.
Plasma samples were analyzed after pretreatment by protein precipitation.

[3] = system: secretion of PGE2 by A549 cells stimulated with IL-1β; experiment: Inhibition of the secretion of PGE2 by A549 cells stimulated with IL-1β; type: cell-based; conditions: Homo sapiens, A549; IL-1β 0.2 ng/mL, 24 hours
Text: The method described here was used for determining the inhibition activity of the present compounds on the secretion of PGE2 by A549 cells stimulated with IL-1β.
• 1. PGE2 Assay kit (Cisbio, #62P2APEB) • 2. IL-1β (Peprotech, # AF-200-01B) • 3. Cell line: A549 (ATCC: CCL-185) • 4. FlexStation3 microplate reader. II. Experimental Procedure
On the first day, A549 cells were inoculated in a 96-well plate at 40000/well. On the second day, the culture medium in the 96-well plate was removed and then added with 90 μL of compound diluted with culture medium (the concentration of each compound at seven gradient concentrations was 11111 nM, […], 1.11 nM, 0.11 nM and 0.011 nM). The cells were incubated for 30 minutes at 37° C. in an incubator, and then added with IL-1β to a final concentration of 0.2 ng/mL. Then, the cells were incubated for another 24 hours at 37° C. On the third day, 10 μl of supernatant, 5 μL of PGE2-d2 and 5 μL of anti-PGE2 Cryptate were added into a black 384-well plate, and then incubated at 4° C. overnight. HTRF was determined using Flexstation, and the IC50 of the compounds was obtained by data processing software.
The inhibition activity of the present compounds on the secretion of PGE2 by A549 cells stimulated with IL-1β was determined by the assay described above.

Sequence of human mPGES1 (O14684 whole entry): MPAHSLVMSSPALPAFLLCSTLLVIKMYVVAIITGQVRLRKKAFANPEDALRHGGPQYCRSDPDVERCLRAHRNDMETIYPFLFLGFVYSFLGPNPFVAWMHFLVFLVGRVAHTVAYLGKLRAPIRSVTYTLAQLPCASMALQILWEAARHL

SMILES | IC50 [1] | Vd/F [2] | AUC [2] | CL/F [2] | half-life [2] | MRT [2] | Cmax [2] | IC50 [3]
CCn1c(-c2ccc(C(F)(F)F)cc2)cc2cc(NC(=O)c3cc(CNC(=O)C(C)(C)F)cnc3C(F)F)ccc21 [Example 17, 2-(Difluoromethyl)-N-(1-ethyl-2-(4-(trifluoromethyl)phenyl)-1H-indol-5-yl)-5-(((2-fluoro-2-methyl-propanoyl)amino)methyl)nicotinamide] | 2.68 nM | 20.2 ± 2.6 L/kg | 2000 ± 650 ng·h/mL | 45.3 ± 15.3 mL/min/kg | 5.44 ± 1.23 h | 10.4 ± 1.9 h | 155 ± 26 ng/mL | 12.1 nM
CCn1c(-c2cccc(Cl)c2)cc2cc(NC(=O)c3cc(CNC(=O)C(C)(C)F)cnc3C(F)F)ccc21 [Example 20, N-(2-(3-Chlorophenyl)-1-ethyl-1H-indol-5-yl)-2-(difluoromethyl)-5-(((2-fluoro-2-methyl-propanoyl)amino)methyl)nicotinamide] | 3.54 nM | 5.41 ± 1.81 L/kg | 8240 ± 2280 ng·h/mL | 10.7 ± 2.7 mL/min/kg | 5.94 ± 2 h | 11.1 ± 3 h | 681 ± 195 ng/mL | 12.6 nM
COCCn1c(-c2ccc(C(F)(F)F)cc2)cc2cc(NC(=O)c3cc(CNC(=O)C(C)(C)F)cnc3C(F)F)ccc21 [Example 27, 2-(Difluoromethyl)-5-(((2-fluoro-2-methyl-propanoyl)amino)methyl)-N-(1-(2-methoxyethyl)-2-(4-(trifluoromethyl)phenyl)-1H-indol-5-yl)nicotinamide] | 4.77 nM | 15.1 ± 1.53 L/kg | 1180 ± 247 ng·h/mL | 73.3 ± 15.3 mL/min/kg | 2.46 ± 0.59 h | 5.32 ± 1.03 h | 193 ± 23 ng/mL | 13.4 nM
Cn1c(-c2cccc(Cl)c2)cc2cc(NC(=O)c3cc(CNC(=O)C(C)(C)F)cnc3C(F)F)ccc21 [Example 33, N-(2-(3-Chlorophenyl)-1-methyl-1H-indol-5-yl)-2-(difluoromethyl)-5-(((2-fluoro-2-methyl-propanoyl)amino)methyl)nicotinamide] | 5.33 nM | 4.82 ± 0.961 L/kg | 5720 ± 1210 ng·h/mL |  |  | 7.6 ± 1.09 h | 557 ± 80 ng/mL | 12.8 nM
Cn1c(-c2cccc(Cl)c2)cc2nc(NC(=O)c3cc(CNC(=O)C(C)(C)F)cnc3C(F)F)ccc21 [Example 35, N-(2-(3-Chlorophenyl)-1-methyl-1H-pyrrolo[3,2-b]pyridin-5-yl)-2-(difluoromethyl)-5-(((2-fluoro-2-methyl-propanoyl)amino)methyl)nicotinamide] | 4.07 nM | 1.85 ± 0.576 L/kg | 37400 ± 36700 ng·h/mL | 4.69 ± 3.72 mL/min/kg | 11.3 ± 14.5 h | 18.8 ± 20.6 h | 1510 ± 517 ng/mL | 31.6 nM
Cn1c(-c2cccc(Cl)c2)cc2cc(NC(=O)c3cc(CNC(=O)C(C)(C)F)cnc3C(F)F)ncc21 [Example 36, N-(2-(3-Chlorophenyl)-1-methyl-1H-pyrrolo[2,3-c]pyridin-5-yl)-2-(difluoromethyl)-5-(((2-fluoro-2-methyl-propanoyl)amino)methyl)nicotinamide] | 4.19 nM | 7.22 ± 1.34 L/kg | 3540 ± 1970 ng·h/mL | 30.4 ± 17 mL/min/kg | 3.69 ± 2.4 h | 6.56 ± 3.01 h | 459 ± 157 ng/mL | 13.2 nM
CCn1c(-c2cccc(Cl)c2)cc2nc(NC(=O)c3cc(CNC(=O)C(C)(C)F)cnc3C(F)F)ccc21 [Example 37, N-(2-(3-Chlorophenyl)-1-ethyl-1H-pyrrolo[3,2-b]pyridin-5-yl)-2-(difluoromethyl)-5-(((2-fluoro-2-methyl-propanoyl)amino)methyl)nicotinamide] | 6.46 nM | 1.39 ± 0.17 L/kg | 23200 ± 14200 ng·h/mL | 5.44 ± 4.31 mL/min/kg | 4.49 ± 2.93 h | 7.34 ± 3.76 h | 2350 ± 676 ng/mL | 22.4 nM
CC(C)(F)C(=O)NCc1cnc(C(F)F)c(C(=O)Nc2ccc3oc(-c4cccc(C(F)(F)F)c4)cc3c2)c1 [Example 48, 2-(Difluoromethyl)-5-(((2-fluoro-2-methyl-propanoyl)amino)methyl)-N-(2-(3-(trifluoromethyl)phenyl)benzofuran-5-yl)nicotinamide] | 3.58 nM | 7.53 ± 1.69 L/kg | 2260 ± 767 ng·h/mL | 41 ± 16.7 mL/min/kg | 2.3 ± 0.76 h | 6.3 ± 1.62 h | 263 ± 66 ng/mL | 14.1 nM
